One molecule from patent publication US12446574B2, “Adjuvants for agrochemical formulations” (SYNGENTA CROP PROTECTION AG, priority 2016, dated 2025) can be followed below.

A short description of the data set: Storage stability of aqueous adjuvant formulations: clear isotropic single-phase solution after 24 hours at the temperature of interest. Format: physicochemical. The arrangement: key: Pass: Samples which were found to be clear isotropic solutions after 24 hours were classified as a pass; Fail: all other results were classed as a fail. The text has this: For the purposes of the present invention we define a stable formulation of adjuvant in water as one where the mixture forms a homogeneous or single phase liquid. The liquid may be a micellar solution however it will appear isotropic to the naked eye. […] This stability allows the design of products with shelf lives potentially running to several years. […]

Take `COCc1cnc(C2=NC(C)(C(C)C)C(=O)N2)c(C(=O)O)c1` (stereo not drawn) [Imazamox, imazamox]: the Result entry runs as follows: (20 °C, Plurafac=0, water=40.5, imazamox=4.5, Tween 20=50, PG=5 % w/w) “Pass”; (20 °C, Plurafac=0, water=45, imazamox=5, Tween 20=50 % w/w) “Pass”; (20 °C, Plurafac=0, water=64.8, imazamox=7.2, Tween 20=20, PG=8 % w/w) “Pass”; (20 °C, Plurafac=0, water=72, imazamox=8, Tween 20=20 % w/w) “Pass”; (20 °C, Plurafac=0, water=72.9, imazamox=8.1, Tween 20=10, PG=9 % w/w) “Pass”; (20 °C, Plurafac=0, water=81, imazamox=9, Tween 20=10 % w/w) “Pass”. The Result entry is on record as “Pass” (50 °C, Plurafac=0, water=40.5, imazamox=4.5, Tween 20=50, PG=5 % w/w); “Pass” (50 °C, Plurafac=0, water=45, imazamox=5, Tween 20=50 % w/w); “Pass” (50 °C, Plurafac=0, water=64.8, imazamox=7.2, Tween 20=20, PG=8 % w/w); “Pass” (50 °C, Plurafac=0, water=72, imazamox=8, Tween 20=20 % w/w); “Pass” (50 °C, Plurafac=0, water=72.9, imazamox=8.1, Tween 20=10, PG=9 % w/w); “Pass” (50 °C, Plurafac=0, water=81, imazamox=9, Tween 20=10 % w/w). The Result entry was “Fail” (-5 °C, Plurafac=0, water=40.5, imazamox=4.5, Tween 20=50, PG=5 % w/w); “Fail” (-5 °C, Plurafac=0, water=45, imazamox=5, Tween 20=50 % w/w); “Pass” (-5 °C, Plurafac=0, water=64.8, imazamox=7.2, Tween 20=20, PG=8 % w/w); “Pass” (-5 °C, Plurafac=0, water=72, imazamox=8, Tween 20=20 % w/w); “Pass” (-5 °C, Plurafac=0, water=72.9, imazamox=8.1, Tween 20=10, PG=9 % w/w); “Pass” (-5 °C, Plurafac=0, water=81, imazamox=9, Tween 20=10 % w/w). In addition, the Result result runs as follows: (-10 °C, Plurafac=0, water=40.5, imazamox=4.5, Tween 20=50, PG=5 % w/w) “Fail”; (-10 °C, Plurafac=0, water=45, imazamox=5, Tween 20=50 % w/w) “Fail”; (-10 °C, Plurafac=0, water=64.8, imazamox=7.2, Tween 20=20, PG=8 % w/w) “Pass”; (-10 °C, Plurafac=0, water=72, imazamox=8, Tween 20=20 % w/w) “Pass”; (-10 °C, Plurafac=0, water=72.9, imazamox=8.1, Tween 20=10, PG=9 % w/w) “Pass”; (-10 °C, Plurafac=0, water=81, imazamox=9, Tween 20=10 % w/w) “Pass”.
